Like-named read-outs stand apart in the source and are kept apart here.
Test system: recombinant rabies virus 1088 strain expressing Gaussia Luciferase (1088/GLuc)
Test: microbe, parasite or virus in culture
Format: cell-based

SMILES | IC50 (read-out: Anti-rabies activity) [µM] | further results
CC(C)CN1C(=O)[C@@H]2C[C@H]3CN[C@@H]([C@@H]2Cc2c[nH]c4cc(F)ccc24)[C@]31C(=O)NCC1CCCCCC1 [IB-817] | 10 to 30 | –
COc1ccc(CN2C[C@H]3C[C@]4(C(=O)NCc5ccccc5)NC(=O)[C@H]3[C@H]2[C@H]4CC(C)C)cc1 (relative stereo) [Compound I-5, (3S*,3aR*,6S*,7R*,7aR*)-N-benzyl-7-isobutyl-1-(4-methoxybenzyl)-4-oxooctahydro-6H-3,6-methanopyrrolo[3,2-c]pyridine-6-carboxamide] | – | IC50 (Lyssavirus rabies, N2a, 72 h, read-out: Anti-rabies activity): < 5 µM
NC(=O)c1nc(F)c[nH]c1=O [Compound T-705, reference compound] | – | IC50 (Lyssavirus rabies, N2a, 72 h, read-out: anti-rabies virus activity IC50): 30 µM
Cc1ccc2c(CN3CC4CC5(C(=O)NCC6CCCCCC6)NC(=O)C4C3C5CC(C)C)cn(C(=O)OC(C)(C)C)c2c1 (racemic) [IF-782] | 10 to 30 | –
Cc1ccc2c(C[C@@H]3[C@H]4C[C@H]5CN[C@@H]3[C@@]5(C(=O)NCC3CCCCCC3)N(CC(C)C)C4=O)cn(C(=O)OC(C)(C)C)c2c1 [IB-814] | 10 to 30 | –
